The data set in a line: Pharmacokinetic evaluation in minipigs. Particulars: female, Göttingen, minipig, plasma. It is filed as in vivo. The protocol:
Compounds were administered in a suitable buffer system, e.g. PBS buffer solution at pH7.4 or DPBS solution at concentrations of 0.05, 0.1, 0.5 or 1 mg/ml depending on dose, species and administration volume.
Female Göttingen minipigs were dosed 0.05 mg/kg intravenously (i.v.) or 0.1 mg/kg subcutaneously (s.c.). Blood samples were collected at 0 h and after 0.083, 0.25, 0.5, 1, 2, 4, 8, 24, 32, 48, 56, 72, 80, and 96 h post i.v. application and at 0 h and after 0.25, 0.5, 1, 2, 4, 8, 24, 32, 48, 56, 72, 80, and 96 h post s.c. application, respectively. Plasma samples were analysed after protein precipitation via liquid chromatography mass spectrometry (LC/MS). PK parameters and half-life were calculated using Phoenix-WinNonlin 8.1 using a non-compartmental model and linear trapezoidal interpolation calculation.
Pharmacokinetic profiles were determined as described in Methods.

Numbered stars: 1 amine (or outer) side, 2 acyl side, 3 side chain; on linkers, the order of the positions; unused ones are H or OH. Square brackets hold non-standard residues; d marks the D form. Side chains are listed from the residue outwards. Peptide text beside a SMILES is read from it. * marks the point of attachment. C18 diacid = O=C(O)CCCCCCCCCCCCCCCCC(=O)*; γGlu = O=C(O)[C@H](CCC(=O)[*:2])N[*:1]; AEEA = NCCOCCOCC(=O)O; Aib = CC(C)(N)C(=O)O

For `CC[C@H](C)[C@H](NC(=O)[C@H](CCC(=O)O)NC(=O)[C@H](CCC(=O)O)NC(=O)[C@H](CCCCNC(=O)COCCOCCNC(=O)COCCOCCNC(=O)CC[C@H](NC(=O)CCCCCCCCCCCCCCCCC(=O)O)C(=O)O)NC(=O)C(C)(C)NC(=O)[C@@H](NC(=O)[C@H](CO)NC(=O)[C@H](CC(C)C)NC(=O)[C@H](CC(=O)O)NC(=O)[C@H](CO)NC(=O)[C@@H](NC(=O)[C@H](Cc1ccccc1)NC(=O)[C@@H](NC(=O)CNC(=O)[C@H](CCC(=O)O)NC(=O)C(C)(C)NC(=O)[C@@H](N)Cc1ccc(O)cc1)[C@@H](C)O)[C@@H](C)CC)[C@@H](C)CC)C(=O)N[C@@H](Cc1c[nH]cn1)C(=O)N[C@@H](CCC(N)=O)C(=O)NC(C)(C)C(=O)N[C@@H](CCC(=O)O)C(=O)N[C@@H](Cc1ccccc1)C(=O)N[C@H](C(=O)N[C@@H](CCC(=O)O)C(=O)N[C@@H](Cc1c[nH]c2ccccc12)C(=O)N[C@@H](CC(C)C)C(=O)N[C@@H](CC(C)C)C(=O)N[C@@H](C)C(=O)N[C@@H](CCC(N)=O)C(=O)NCC(=O)N1CCC[C@H]1C(=O)N[C@@H](CO)C(=O)N[C@@H](CO)C(=O)NCC(=O)N[C@@H](C)C(=O)N1CCC[C@H]1C(=O)N1CCC[C@H]1C(=O)N1CCC[C@H]1C(=O)N[C@@H](CO)C(N)=O)[C@@H](C)CC` [SEQ ID NO: 19, H2N-Y-Aib-E-G-T-F-I-S-D-L-S-I-Aib-K[{AEEA}2-gGlu-C18OH]-E-E-I-H-Q-Aib-E-F-I-E-W-L-L-A-Q-G-P-S-S-G-A-P-P-P-S-NH2] (H-Y[Aib]EGTFISDLSI[Aib]K([AEEA-AEEA-γGlu-C18 diacid])EEIHQ[Aib]EFIEWLLAQGPSSGAPPPS-NH2), under “iv, 0.05 mg/kg i.v.”, the AUC(0-t) (as a rule, exposure summed from dosing to a finite time, without extrapolation to infinity) was determined as 50500 ng·h/mL; the Cmax (usually the highest concentration seen after dosing) came to 1980 ng/mL; the clearance (in general, a measure of how efficiently the substance is removed, as volume per time) is 15.4 mL/day/kg; the half-life (usually the time in which the quantity being followed falls by half) was 64.1 h. Also, under “sc, 0.1 mg/kg s.c.”, the AUC(0-t) was 56800 ng·h/mL; the Cmax was 723 ng/mL; the bioavailability (in general, dose-corrected exposure relative to a reference, in per cent) was 56%.

The record behind these values is patent US20240360194A1, “New Peptides as Potent and Selective GIP Receptor Agonists” (Sanofi, priority 2021, published 2024).
